Source: ChEMBL document CHEMBL5375962 (J Med Chem, 2023)
Converted amounts (≈) assume the structure as drawn.

Columns and labels:
[1] = Metabolic stability in rat liver microsomes assessed as compound degradation measured after 30 mins; format: ADME, Microsome; settings: read-out: Drug degradation
Hepatocyte = assay: Cytotoxicity against rat Primary hepatocyte; format: toxicity, cell-based; settings: hepatocytes
Ketohexokinase [2] = target: T1, Ketohexokinase (Homo sapiens, UniProt P50053); assay: Inhibition of human KHK-A preincubated for 15 mins followed by substrate addition and measured after 20 mins in presence of ATP by Rapidfire MS analysis
T1 sequence (P50053 whole entry): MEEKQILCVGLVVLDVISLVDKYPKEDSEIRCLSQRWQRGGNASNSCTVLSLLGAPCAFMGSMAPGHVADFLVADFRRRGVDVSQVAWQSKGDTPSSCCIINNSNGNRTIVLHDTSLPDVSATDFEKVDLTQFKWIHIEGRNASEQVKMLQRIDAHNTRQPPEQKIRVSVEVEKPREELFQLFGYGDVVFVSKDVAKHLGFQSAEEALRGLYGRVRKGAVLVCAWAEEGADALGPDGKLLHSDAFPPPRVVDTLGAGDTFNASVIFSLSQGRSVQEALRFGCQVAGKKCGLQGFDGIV

[3] = Metabolic stability in dog liver microsomes assessed as compound degradation measured after 30 mins; format: ADME, Canis lupus familiaris, Microsome; settings: read-out: Drug degradation
[4] = Metabolic stability in human liver microsomes assessed as compound degradation measured after 30 mins; format: ADME, Microsome; settings: read-out: Drug degradation
[5] = Thermodynamic solubility of the compound […] at pH 7.4; format: physicochemical; settings: read-out: Therm_solubility
Ketohexokinase [6] = target: T1, Ketohexokinase; assay: Inhibition of KHK in human HepG2 cells incubated for 3 hrs by Rapidfire MS analysis; format: cell-based
Ketohexokinase [7] = target: T1, Ketohexokinase; assay: Inhibition of human KHK-C preincubated for 15 mins followed by substrate addition and measured after 20 mins in presence of ATP by Rapidfire MS analysis
[8] = Metabolic stability in mouse liver microsomes assessed as compound degradation measured after 30 mins; format: ADME, Microsome; settings: read-out: Drug degradation
[9] = Inhibition of mouse KHK-A
[10] = Inhibition of mouse KHK-C
[11] = Clearance in human hepatocytes measured per 10^6 cells; format: ADME, cell-based, Hepatocyte; settings: read-out: CLH
[12] = Clearance in rat hepatocytes measured per 10^6 cells; format: ADME, cell-based, Hepatocyte; settings: read-out: CLH
[13] = Permeability in MDCK cells assessed as drug transport measured over 1 hr in presence of P-gp; format: ADME, cell-based, Canis lupus familiaris; settings: dog
[14] = Clearance in dog hepatocytes measured per 10^6 cells; format: ADME, cell-based, Canis lupus familiaris, Hepatocyte; settings: read-out: CLH
[15] = Half life in rat at 1 mg/kg, iv measured after 12 hrs; format: ADME, organism-based; settings: in vivo
[16] = Clearance in rat at 1 mg/kg, iv measured after 12 hrs; format: ADME, organism-based; settings: in vivo
[17] = Cmax in rat at 1 mg/kg, iv measured after 12 hrs; format: ADME, organism-based; set-up: dose 1 mg/kg, time 12 hrs, route iv; settings: in vivo
[18] = Volume of distribution in rat at 1 mg/kg, iv measured after 12 hrs; format: ADME, organism-based; settings: in vivo
[19] = AUC in rat at 1 mg/kg, iv measured after 12 hrs; format: ADME, organism-based; set-up: time 12 hrs, dose 1 mg/kg, route iv; settings: in vivo
[20] = Half life in dog at 1 mg/kg, iv; format: ADME, organism-based, Canis lupus familiaris; settings: in vivo
[21] = Volume of distribution in dog at 1 mg/kg, iv; format: ADME, organism-based, Canis lupus familiaris; settings: in vivo
[22] = AUC in dog at 1 mg/kg, iv; format: ADME, organism-based, Canis lupus familiaris; set-up: dose 1 mg/kg, route iv; settings: in vivo
[23] = Clearance in dog at 1 mg/kg, iv; format: ADME, organism-based, Canis lupus familiaris; settings: in vivo
[24] = Cmax in dog at 1 mg/kg, iv; format: ADME, organism-based, Canis lupus familiaris; set-up: dose 1 mg/kg, route iv; settings: in vivo

| Structure (SMILES) | metabolised at 0.5 h [1] [%] | IC50 (Ketohexokinase [2]) [µM] | metabolised at 0.5 h [3] [%] | metabolised at 0.5 h [4] [%] | solubility thermodynamic [5] [µg/mL] | IC50 (Ketohexokinase [6]) [µM] | IC50 (Ketohexokinase [7]) [µM] | metabolised at 0.5 h [8] [%] | IC50 [9] [µM] | IC50 [10] [µM] | hepatocyte CLint [11] [µL/min/1e6 cells] | hepatocyte CLint [12] [µL/min/1e6 cells] | Drug transport [13] [%] | hepatocyte CLint [14] [µL/min/1e6 cells] | LC20 (Hepatocyte) [µM] | further results |
| --- | --- | --- | --- | --- | --- | --- | --- | --- | --- | --- | --- | --- | --- | --- | --- | --- |
| C[C@H]1CCN1c1nc(-c2cnn(C3CCOCC3)c2)cc(C(F)(F)F)c1C#N | 98 | 0.033 | 98 | 49 | 31 (≈ 79.2 µM) | 0.118 | 0.038 | 98 | 0.04 | 0.061 | – | – | – | – | > 50 | – |
| C[C@H]1CCN1c1nc(-c2cnn(CC(=O)N3C[C@@H](O)[C@H](O)C3)c2)cc(C(F)(F)F)c1C#N | 0 | – | 2 | 52 | 19 (≈ 42.2 µM) | 0.109 | – | 13 | 0.007 | 0.008 | 6.1 | 2.2 | 0.5 | 1.9 | > 50 | half-life [15]: 0.6 h; clearance [16]: 71 mL/min/kg; Cmax [17]: 1830 nM; Vd [18]: 3.3 L/kg; AUC at 12 h [19]: 0.53 µM·h |
| OC[C@H]1CCN1c1nc(-c2cnn(C3CNC3)c2)cc(C(F)(F)F)n1 | 0 | – | 0 | 4 | 690 (≈ 1950 µM) | 0.04 | – | 20 | 0.108 | 0.032 | < 1.8 | 10 | 2.2 | 2 | > 50 | half-life [20]: 3.7 h; Vd [21]: 5.2 L/kg; half-life [15]: 0.7 h; AUC [22]: 1.31 µM·h; clearance [16]: 90 mL/min/kg; clearance [23]: 37 mL/min/kg; Cmax [17]: 1050 nM; Cmax [24]: 2730 nM; Vd [18]: 3.4 L/kg; AUC at 12 h [19]: 0.531 µM·h |
| C[C@H]1CCN1c1nc(-c2cnn(CCO)c2)cc(C(F)(F)F)c1C#N | 99 | 0.005 | 95 | 52 | 1 (≈ 2.85 µM) | 0.048 | – | 99 | 0.004 | 0.007 | – | – | – | – | – | – |
| C[C@H]1CCN1c1nc(-c2cnn(CCN(C)C)c2)cc(C(F)(F)F)c1C#N | 83 | 0.022 | 100 | 76 | < 1 | 0.082 | 0.028 | 100 | 0.0045 | 0.044 | – | – | – | – | > 50 | – |
| C[C@H]1CCN1c1nc(-c2cnn(CC(=O)N(CCO)CCO)c2)cc(C(F)(F)F)c1C#N | 9 | – | 16 | 27 | 28 (≈ 61.9 µM) | 0.102 | – | 30 | 0.016 | 0.035 | 43 | 6.1 | 2 | 2.6 | > 50 | half-life [15]: 2.4 h; clearance [16]: 23 mL/min/kg; Cmax [17]: 2940 nM; Vd [18]: 4.8 L/kg; AUC at 12 h [19]: 1.59 µM·h |
| CC(=O)N1CCC(n2cc(-c3cc(C(F)(F)F)c(C#N)c(N4CC[C@@H]4C)n3)cn2)CC1 | 30 | – | 32 | 45 | 7 (≈ 16.2 µM) | 0.096 | – | 66 | 0.019 | 0.045 | – | – | – | – | – | – |
| C[C@H]1CCN1c1nc(-c2cn[nH]c2)cc(C(F)(F)F)c1C#N | 81 | – | 98 | 52 | 3 (≈ 9.76 µM) | 0.034 | – | 100 | 0.006 | 0.019 | 49 | 30 | 20 | 150 | > 50 | – |
| C[C@H]1CCN1c1nc(-c2cnn(CC(=O)N3CCN(C)CC3)c2)cc(C(F)(F)F)c1C#N | 52 | 0.009 | 95 | 60 | 7 (≈ 15.6 µM) | 0.036 | 0.006 | 93 | 0.004 | 0.007 | – | – | – | – | 18 | – |
| C[C@H]1CCN1c1nc(-c2cnn(CC(=O)N3C[C@H](O)[C@@H](O)C3)c2)cc(C(F)(F)F)c1C#N | 1 | 0.007 | 9 | 24 | 21 (≈ 46.6 µM) | 0.076 | – | 20 | 0.005 | 0.012 | 3.6 | 2.3 | 0.5 | < 1.8 | > 50 | half-life [20]: 2.1 h; Vd [21]: 2.7 L/kg; half-life [15]: 0.5 h; AUC [22]: 2.5 µM·h; clearance [16]: 101 mL/min/kg; clearance [23]: 16 mL/min/kg; Cmax [17]: 1280 nM; Cmax [24]: 2650 nM; Vd [18]: 4.6 L/kg; AUC at 12 h [19]: 0.381 µM·h |

The next compounds have a lower IC50 (Ketohexokinase [6]) than those just listed; values first:

| metabolised at 0.5 h [1] [%] | IC50 (Ketohexokinase [2]) [µM] | metabolised at 0.5 h [3] [%] | metabolised at 0.5 h [4] [%] | solubility thermodynamic [5] [µg/mL] | IC50 (Ketohexokinase [6]) [µM] | IC50 (Ketohexokinase [7]) [µM] | metabolised at 0.5 h [8] [%] | IC50 [9] [µM] | IC50 [10] [µM] | hepatocyte CLint [11] [µL/min/1e6 cells] | hepatocyte CLint [12] [µL/min/1e6 cells] | Drug transport [13] [%] | hepatocyte CLint [14] [µL/min/1e6 cells] | Structure (SMILES) | LC20 (Hepatocyte) [µM] | further results |
| --- | --- | --- | --- | --- | --- | --- | --- | --- | --- | --- | --- | --- | --- | --- | --- | --- |
| 11 | 0.004 | 20 | 7 | 450 (≈ 1330 µM) | 0.006 | 0.005 | 21 | 0.013 | 0.003 | 2.5 | 11 | 12 | 4.4 | C[C@H]1CCN1c1nc(-c2cnn(C3CNC3)c2)cc(C(F)(F)F)n1 | 48 | – |
| 2 | 0.004 | 11 | 0 | 39 (≈ 99.9 µM) | 0.005 | 0.004 | 24 | 0.002 | 0.006 | 3.5 | 3.7 | 8.7 | 4.9 | C[C@H]1CCN1c1nc(-c2cnn(C3CCNCC3)c2)cc(C(F)(F)F)c1C#N | < 9 | – |
| 26 | 0.015 | 27 | 15 | 40 (≈ 110 µM) | 0.002 | 0.015 | 13 | 0.008 | 0.005 | – | – | – | – | C[C@H]1CCN1c1nc(-c2cnn(C3CNC3)c2)cc(C(F)(F)F)c1C#N | 31 | – |
| 38 | 0.004 | 57 | 26 | 38 (≈ 87.5 µM) | 0.015 | 0.006 | 32 | – | 0.008 | – | – | – | – | C[C@H]1CCN1c1nc(-c2cnn(C3CCN(CCO)CC3)c2)cc(C(F)(F)F)c1C#N | 17 | – |
| 86 | 0.005 | 100 | 20 | 11 (≈ 31.2 µM) | 0.003 | 0.004 | 87 | – | 0.002 | 5 | 29 | 22 | 49 | C[C@H]1CCN1c1nc(-c2cnn(C3CN(C)C3)c2)cc(C(F)(F)F)n1 | > 50 | – |
| 33 | 0.007 | 36 | 11 | 11 (≈ 27.2 µM) | 0.02 | 0.006 | 86 | 0.004 | 0.014 | – | – | – | – | C[C@H]1CCN1c1nc(-c2cnn(C3CCN(C)CC3)c2)cc(C(F)(F)F)c1C#N | – | – |
| 5 | 0.006 | 0 | 0 | 12 (≈ 26.8 µM) | 0.016 | 0.006 | 18 | 0.003 | 0.01 | – | – | – | – | C[C@H]1CCN1c1nc(-c2cnn(C3CCN(C(=O)CN)CC3)c2)cc(C(F)(F)F)c1C#N | 16 | – |
| 17 | 0.008 | 15 | 2 | 410 (≈ 1120 µM) | 0.026 | 0.015 | 8 | 0.052 | 0.159 | – | – | – | – | C[C@H]1CCN1c1nc(-c2cnn(C3CCNCC3)c2)cc(C(F)(F)F)n1 | 23 | – |
